Laboratory results as given in ChEMBL document CHEMBL6153046, “Semisynthesis of Glycosmis pentaphylla Alkaloid Derivatives: Pyranoacridone-Hydroxamic Acid Cytotoxic Conjugates with HDAC and Topoisomerase II α Dual Inhibitory Activity” (J Nat Prod, 2025).
Calls of active or inactive are those of the source. No cut-off for these calls is given here.

How the values were obtained:
[1] = biological target: DNA topoisomerase 2-alpha (Homo sapiens) (UniProt P11388); assay: Inhibition of human topoisomerase II alpha using kinetoplast DNA as substrate incubated for 30 mins; conditions: dose 10-100 µM
[2] = system: Calu-3; assay: Cytotoxicity against human CALU-3 cells assessed as cell viability incubated for 96 hrs by MTT assay; assay type: functional, cell-based; conditions: Calu-3, 96 h
[3] = system: MCF7; assay: Cytotoxicity against human MCF-7 cells assessed as cell viability incubated for 96 hrs by MTT assay; assay type: functional, cell-based; conditions: MCF7, 96 h
[4] = Cytotoxicity against human Oral epithelial cell assessed as cell viability incubated for 96 hrs by MTT assay; conditions: for IC50 at 96 h: human, oral epithelial cells; for IC50: oral epithelial cell
[5] = system: SCC-25; assay: Cytotoxicity against human SCC-25 cells assessed as cell viability incubated for 96 hrs by MTT assay; assay type: functional, cell-based; conditions: SCC-25, 96 h
[6] = system: SCC-25; assay: Induction of apoptosis in human SCC-25 cells assessed as necrotic cells at 200 uM incubated for 48 hrs by Annexin V-Alexa fluor 488 and propidium iodide staining based flow cytometry relative to control; assay type: functional
[7] = system: SCC-25; assay: Induction of apoptosis in human SCC-25 cells assessed as early apoptotic cells at 200 uM incubated for 48 hrs by Annexin V-Alexa fluor 488 and propidium iodide staining based flow cytometry relative to control; assay type: functional
[8] = system: SCC-25; assay: Induction of apoptosis in human SCC-25 cells assessed as viable at 200 uM incubated for 48 hrs by Annexin V-Alexa fluor 488 and propidium iodide staining based flow cytometry relative to control; assay type: functional
[9] = biological target: DNA topoisomerase 2-alpha (Homo sapiens) (UniProt P11388); conditions: dose 2.0 mM, time 30.0 min
[10] = system: SCC-25; assay: Induction of apoptosis in human SCC-25 cells assessed as late apoptotic cells at 200 uM incubated for 48 hrs by Annexin V-Alexa fluor 488 and propidium iodide staining based flow cytometry relative to control; assay type: functional
[11] = system: SCC-25; assay: Induction of apoptosis in human SCC-25 cells assessed as viable at 10 uM incubated for 48 hrs by Annexin V-Alexa fluor 488 and propidium iodide staining based flow cytometry relative to control; assay type: functional
[12] = system: SCC-25; assay: Induction of apoptosis in human SCC-25 cells assessed as viable at 0.1 uM incubated for 48 hrs by Annexin V-Alexa fluor 488 and propidium iodide staining based flow cytometry relative to control; assay type: functional
[13] = system: SCC-25; assay: Induction of apoptosis in human SCC-25 cells assessed as early apoptotic cells at 10 uM incubated for 48 hrs by Annexin V-Alexa fluor 488 and propidium iodide staining based flow cytometry relative to control; assay type: functional
[14] = system: SCC-25; assay: Induction of apoptosis in human SCC-25 cells assessed as late apoptotic cells at 0.1 uM incubated for 48 hrs by Annexin V-Alexa fluor 488 and propidium iodide staining based flow cytometry relative to control; assay type: functional
[15] = system: SCC-25; assay: Induction of apoptosis in human SCC-25 cells assessed as early apoptotic cells at 1 uM incubated for 48 hrs by Annexin V-Alexa fluor 488 and propidium iodide staining based flow cytometry relative to control; assay type: functional
[16] = system: SCC-25; assay: Induction of apoptosis in human SCC-25 cells assessed as late apoptotic cells at 10 uM incubated for 48 hrs by Annexin V-Alexa fluor 488 and propidium iodide staining based flow cytometry relative to control; assay type: functional
[17] = system: SCC-25; assay: Induction of apoptosis in human SCC-25 cells assessed as viable at 1 uM incubated for 48 hrs by Annexin V-Alexa fluor 488 and propidium iodide staining based flow cytometry relative to control; assay type: functional
[18] = system: SCC-25; assay: Induction of apoptosis in human SCC-25 cells assessed as necrotic cells at 1 uM incubated for 48 hrs by Annexin V-Alexa fluor 488 and propidium iodide staining based flow cytometry relative to control; assay type: functional
[19] = system: SCC-25; assay: Induction of apoptosis in human SCC-25 cells assessed as early apoptotic cells at 0.1 uM incubated for 48 hrs by Annexin V-Alexa fluor 488 and propidium iodide staining based flow cytometry relative to control; assay type: functional
[20] = system: SCC-25; assay: Induction of apoptosis in human SCC-25 cells assessed as necrotic cells at 10 uM incubated for 48 hrs by Annexin V-Alexa fluor 488 and propidium iodide staining based flow cytometry relative to control; assay type: functional
[21] = system: SCC-25; assay: Induction of apoptosis in human SCC-25 cells assessed as late apoptotic cells at 1 uM incubated for 48 hrs by Annexin V-Alexa fluor 488 and propidium iodide staining based flow cytometry relative to control; assay type: functional
[22] = system: SCC-25; assay: Induction of apoptosis in human SCC-25 cells assessed as necrotic cells at 0.1 uM incubated for 48 hrs by Annexin V-Alexa fluor 488 and propidium iodide staining based flow cytometry relative to control; assay type: functional
[23] = biological target: DNA topoisomerase 2-alpha (Homo sapiens) (UniProt P11388); assay: Inhibition of human topoisomerase II alpha using kinetoplast DNA as substrate at 10 microM incubated for 30 mins

Chain of DNA topoisomerase 2-alpha (Homo sapiens) (P11388 whole entry): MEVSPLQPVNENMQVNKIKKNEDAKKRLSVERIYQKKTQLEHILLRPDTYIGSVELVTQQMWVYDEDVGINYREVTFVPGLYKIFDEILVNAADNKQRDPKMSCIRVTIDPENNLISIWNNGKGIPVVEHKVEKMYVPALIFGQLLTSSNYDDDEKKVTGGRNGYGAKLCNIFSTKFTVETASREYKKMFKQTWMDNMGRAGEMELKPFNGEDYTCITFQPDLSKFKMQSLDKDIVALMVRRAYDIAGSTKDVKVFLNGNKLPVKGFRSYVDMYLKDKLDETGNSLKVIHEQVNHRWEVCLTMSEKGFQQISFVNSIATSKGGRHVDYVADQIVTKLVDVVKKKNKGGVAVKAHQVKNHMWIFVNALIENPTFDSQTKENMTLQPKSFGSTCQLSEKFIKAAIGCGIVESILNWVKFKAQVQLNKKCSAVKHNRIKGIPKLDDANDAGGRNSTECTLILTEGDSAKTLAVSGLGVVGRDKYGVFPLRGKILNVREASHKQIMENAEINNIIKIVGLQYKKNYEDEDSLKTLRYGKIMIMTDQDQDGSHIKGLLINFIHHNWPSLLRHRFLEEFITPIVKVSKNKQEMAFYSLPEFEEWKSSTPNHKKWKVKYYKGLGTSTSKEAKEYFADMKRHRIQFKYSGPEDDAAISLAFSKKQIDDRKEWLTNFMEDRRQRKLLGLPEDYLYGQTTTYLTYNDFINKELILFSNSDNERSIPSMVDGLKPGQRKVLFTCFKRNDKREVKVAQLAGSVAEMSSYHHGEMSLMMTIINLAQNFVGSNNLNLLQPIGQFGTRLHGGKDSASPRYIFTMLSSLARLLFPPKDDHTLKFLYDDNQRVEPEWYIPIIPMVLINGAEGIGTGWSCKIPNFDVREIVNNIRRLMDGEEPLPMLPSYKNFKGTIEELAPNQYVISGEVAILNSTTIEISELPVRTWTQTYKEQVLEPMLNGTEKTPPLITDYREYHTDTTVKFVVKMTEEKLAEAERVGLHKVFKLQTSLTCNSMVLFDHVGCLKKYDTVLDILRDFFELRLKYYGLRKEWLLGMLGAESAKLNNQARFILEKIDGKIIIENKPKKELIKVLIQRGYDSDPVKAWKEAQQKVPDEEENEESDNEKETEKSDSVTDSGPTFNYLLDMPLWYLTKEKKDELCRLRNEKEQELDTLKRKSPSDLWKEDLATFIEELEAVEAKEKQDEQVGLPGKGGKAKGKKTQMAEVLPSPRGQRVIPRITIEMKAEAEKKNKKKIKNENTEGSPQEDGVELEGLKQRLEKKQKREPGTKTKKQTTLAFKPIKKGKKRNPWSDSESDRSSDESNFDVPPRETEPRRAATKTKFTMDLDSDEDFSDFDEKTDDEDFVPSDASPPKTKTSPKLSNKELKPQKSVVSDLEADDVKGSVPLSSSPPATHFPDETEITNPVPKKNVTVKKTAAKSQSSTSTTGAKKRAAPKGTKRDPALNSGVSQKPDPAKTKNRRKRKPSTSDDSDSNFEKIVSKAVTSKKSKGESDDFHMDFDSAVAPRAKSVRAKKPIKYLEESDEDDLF

SMILES | inhibition [1] | IC50 [2] [µM] | IC50 [3] [µM] | IC50 at 96 h [4] [µM] | IC50 [5] [µM] | IC50 [4] | also measured
COc1cc2c(c3c1c(=O)c1ccccc1n3CCCCC(=O)NO)C=CC(C)(C)O2 |  | 29.5 | > 100 |  | > 100 | Not_determined | 
COc1cc2c(c3c1c(=O)c1ccccc1n3Cc1cccc(C(=O)NO)c1)C=CC(C)(C)O2 |  | 42 | 80.1 |  | 39.3 | Not_determined | 
COc1cc2c(c3[nH]c4ccccc4c(=O)c13)C=CC(C)(C)O2 |  | 13.9 | 191 |  | 21.2 | Not_determined | 
Cn1c2ccccc2c(=O)c2c(OCc3ccc(C(=O)NO)cc3)cc3c(c21)C=CC(C)(C)O3 |  | 1.81 | 4.71 | > 100 | 1.66 |  | 
COc1cc([C@@H]2c3cc4c(cc3[C@@H](O[C@@H]3O[C@@H]5CO[C@@H](C)O[C@H]5[C@H](O)[C@H]3O)[C@H]3COC(=O)[C@H]23)OCO4)cc(OC)c1O [ETOPOSIDE] |  | 0.6 | 55.6 |  | 3.4 | Not_determined | Activity [6]: 13.3%; Activity [7]: 2.76%; Activity [8]: 65.5%; inhibition [9]: Active; Activity [10]: 17.2%
COc1cc2c(c3c1c(=O)c1ccccc1n3CC(=O)NO)C=CC(C)(C)O2 |  | 61.8 | > 100 |  | 41.5 | Not_determined | 
COc1cc2c(c3c1c(=O)c1ccccc1n3CCCCCC(=O)NO)C=CC(C)(C)O2 |  | 18 | 40.8 | > 100 | 14.8 |  | 
Cn1c2ccccc2c(=O)c2c(O)cc3c(c21)C=CC(C)(C)O3 [NORACRONYCINE] |  | 97.5 | 187 |  | 14.1 | Not_determined | 
COc1cc2c(c3c1c(=O)c1ccccc1n3CCCC(=O)NO)C=CC(C)(C)O2 |  | 36.8 | > 100 |  | 36 | Not_determined | 
Cn1c2ccccc2c(=O)c2c(OCc3cccc(C(=O)NO)c3)cc3c(c21)C=CC(C)(C)O3 |  | 6.53 | 6.62 | > 100 | 23.1 |  | inhibition [23]: Active

Continued, in another order:

inhibition [1] | SMILES | IC50 [2] [µM] | IC50 [3] [µM] | IC50 at 96 h [4] [µM] | IC50 [5] [µM] | IC50 [4] | also measured
Dose-dependent-effect | COc1cc2c(c3c1c(=O)c1ccccc1n3Cc1ccc(C(=O)NO)cc1)C=CC(C)(C)O2 | 14.2 | 19.7 | 82.5 | 7.7 |  | 
Dose-dependent-effect | Cn1c2ccccc2c(=O)c2c(OCCCCCC(=O)NO)cc3c(c21)C=CC(C)(C)O3 | 16.1 | 8.3 | 24.5 | 9.7 |  | 
Dose-dependent-effect | Cn1c2ccccc2c(=O)c2c(OCCCCCCC(=O)NO)cc3c(c21)C=CC(C)(C)O3 | 10.6 | 5.7 | > 100 | 0.7 |  | 
Dose-dependent-effect | Cn1c2ccccc2c(=O)c2c(OCCCC(=O)NO)cc3c(c21)C=CC(C)(C)O3 | 3.2 | 2.8 | 27 | 2.2 |  | 
Dose-dependent-effect | Cn1c2ccccc2c(=O)c2c(OCC(=O)NO)cc3c(c21)C=CC(C)(C)O3 | 4 | 10.9 | > 100 | 1.2 |  | 
Dose-dependent-effect | Cn1c2ccccc2c(=O)c2c(OCCCCC(=O)NO)cc3c(c21)C=CC(C)(C)O3 | 1.51 | 1.03 | > 100 | 0.35 |  | Activity [11]: 13.7%; Activity [12]: 96.1%; Activity [13]: 0.15%; Activity [14]: 1.35%; Activity [15]: 1.13%; Activity [16]: 53.1%; Activity [17]: 87%; Activity [18]: 7.49%; Activity [19]: 0.63%; Activity [20]: 33.1%; Activity [21]: 4.35%; Activity [22]: 1.96%
Dose-dependent-effect | COc1cc2c(c3c1c(=O)c1ccccc1n3CCCCCCC(=O)NO)C=CC(C)(C)O2 | 4.37 | 6.12 | 60.2 | 1.11 |  | 
